Data from patent publication US11241483B2, “Methods of treating mild brain injury” (The Regents of the University of California, priority 2014, dated 2022).
“Also recorded” adds a separate entry of the source. Ends that are not written are not given here.

Experiments:
[1] = tested on: oxidative burst in inflammatory cells (reactive oxygen species); assay: Oxidative burst (ROS, DHR 123 flow cytometry) in leukocytes isolated from brain tissue after mild brain injury (controlled cortical impact); assay type: in vivo, C57/B6 mice
Description: FIG. 1 depicts principle of assaying oxidative burst within inflammatory cells. Dihydrorhodamine 123 (DHR 123) diffuses across the cell membrane. When it encounters reactive oxygen species (ROS), DHR 123 is oxidized and fluoresces green. The fluorescence is then measured and presented as arbitrary fluorescence unit (AFU), wherein higher intensity means greater oxidative burst and, therefore greater concentration of amount of ROS (See Chen, et al., Measurement of oxidative burst in neutrophils,” Methods Mol Biol., 844: 115-124 (2012); which is incorporated herein by reference in its entirety).
Ghrelin administration reduces oxidative burst in inflammatory cells following mBI. Since no well-accepted animal model exists for concussions, a very small cerebral lesion that closely mimics mBI is used as a model of mBI. […] Anesthesia is assessed by paw pinch reflex. […]
Animals are separated into three treatment groups: 1) Sham, 2) mBI, and 3) mBI plus ghrelin. […] The fluorescence is then measured and presented as arbitrary fluorescence unit (AFU), wherein higher intensity means greater oxidative burst and, therefore greater concentration or amount of ROS. […] Oxidative burst, which is a marker for ROS, can be measured by flow cytometry (e.g., FL1 channel with 488-nm laser).

[2] = tested on: blood brain barrier (BBB) vascular permeability; Aquaporin 4 (AQP-4); assay: Ghrelin treatment of TBI animals (background statement): BBB vascular permeability and Aquaporin 4 expression; assay type: in vivo; conditions: following TBI

Substance: Gly-Ser-Ser-Phe-Leu-Ser-Pro-Glu-His-Gln-Arg-Val-Gln-Gln-Arg-Lys-Glu-Ser-Lys-Lys-Pro-Pro-Ala-Lys-Leu-Gln-Pro-Arg (SEQ ID NO. 1) (GSSFLSPEHQRVQQRKESKKPPAKLQPR; not fully specified (residues 2, 3); printed as Gly-Ser-Ser-Phe-Leu-Ser-Pro-Glu-His-Gln-Arg-Val-Gln-Gln-Arg-Lys-Glu-Ser-Lys-Lys-Pro-Pro-Ala-Lys-Leu-Gln-Pro-Arg; also: octanoyl on Ser2 and/or Ser3 stated only as an option; listed as Homo sapiens) [ghrelin, 28-amino acid peptide, neuroendocrine hormone, endogenous ligand for growth hormone secretagogue receptor; obtainable from Phoenix Pharmaceuticals]
- Oxidative burst of ipsilateral whole brain following mild BI (mean fluorescence intensity) ([1]; mild BI+ghrelin (2 doses), subcutaneous 10 μg following mBI and 10 μg 1 hour after, vs 7963 AFU±2900 mild BI and 4624 AFU±1858 sham, n=5, p=0.048): 3257 AFU
- Oxidative burst in inflammatory cells following mBI (FIG. 2, peak shift) ([1]; subcutaneous ghrelin vs untreated mBI, n=3 animals in each group): reduced the oxidative burst; also recorded: lower oxidative burst
- Post-TBI up-regulation of Aquaporin 4 (AQP-4) [2]: prevents post-TBI up-regulation of Aquaporin 4
